These results are taken from ChEMBL document CHEMBL1123332, “Synthesis and anti-herpes-virus activity of acyclic 2'-deoxyguanosine analogues related to 9-[(1,3-dihydroxy-2-propoxy)methyl]guanine” (1986).

Assay [1] can be described thus: Antiviral activity determined against herpes simplex type 1 (F strain) by plaque reduction in Vero cells. It is filed as functional. The conditions noted are these: Chlorocebus sabaeus, read-out: ID50 (the source's name).
The test system of assay [2] is Thymidine kinase (Human alphaherpesvirus 1). The assay is described as follows: Phosphorylation of compound by purified HSV-1 (F strain) thymidine kinase. Also on record: concentration or dose not given beside the values.
The test system of assay [3] is Mus musculus. The assay can be described thus: Effect of subcutaneous treatment with the compound on HSV-2 encephalitis infection in mice at a dose of 20 mg/kg; 3/10. It is filed as functional.
For assay [4], the system named is Mus musculus. The assay is described as follows: Mean survival time of HSV-2 encephalitis infectuous mice upon subcutaneous treatment with the compound at a dose of 20 mg/kg. It is filed as functional.
The test system of assay [5] is Mus musculus. The assay is described as follows: Effect of subcutaneous treatment with the compound on HSV-2 encephalitis infection in mice at a dose of 20 mg/kg; 10/16. It is filed as functional.
In assay [6] the test system is Mus musculus. The assay is described as follows: Effect of subcutaneous treatment with the compound on HSV-2 encephalitis infection in mice at a dose of 20 mg/kg; 2/10. Type of assay: functional.

Consider `Nc1nc2c(ncn2COCCO)c(=O)[nH]1` [ACYCLOVIR], for which the IC50 in assay [1] is 0.5 µM.
In the case of `CC(CO)(CO)COCn1cnc2c(O)nc(N)nc21`, the Activity in assay [2] was found to be 100%. For the same compound, in assay [1], the IC50 is greater than 100 µM.
In assay [3], `Nc1nc(O)c2ncn(COCCOC(CO)CO)c2n1` had a Survivors of 3. In addition, in assay [2], the Activity was found to be 23%. Besides, in assay [1], the IC50 is greater than 7 µM. In addition, in assay [4], the MST turned out to be 10.3 days.
On to `Nc1nc(O)c2ncn(CO[C@H](CO)COC3CCCC3)c2n1`, for which, in assay [2], the Activity was 21%. Moreover, the IC50 in assay [1] was found to be 40 µM.
Taken in the same sequence, the figures for `Nc1nc(O)c2ncn(CO[C@H](CO)CCO)c2n1` were 111% and 95 µM.
Regarding `Nc1nc2c(ncn2CC(CO)CO)c(=O)[nH]1` [TIVICICLOVIR], in assay [1], the IC50 was greater than 100 µM.
`Nc1nc2c(ncn2COC(CO)CO)c(=O)[nH]1` [GANCICLOVIR] registered a Survivors in assay [5] of 10. Further, the IC50 in assay [1] came to 0.2 µM. The same compound yielded an MST in assay [4] of 13.5 days.
`[N-]=[N+]=NC[C@@H](CO)OCn1cnc2c(O)nc(N)nc21` had an Activity in assay [2] of 25%. For the same compound, the IC50 in assay [1] is greater than 100 µM.
In assay [2], `COC[C@@H](CO)OCn1cnc2c(O)nc(N)nc21` had an Activity of 32%. For the same compound, the IC50 in assay [1] is 70 µM.
On the same counts, the results for `C[C@@H](CO)OCn1cnc2c(O)nc(N)nc21` are 28% and 2.3 µM.
Taken in the same sequence, the figures for `Nc1nc(O)c2ncn(CCOC(CO)CO)c2n1` were 35% and greater than 100 µM.
Take `Nc1nc(O)c2ncn(CO[C@H](CO)CF)c2n1`: the Survivors in assay [6] is reported as 2. In assay [2], this compound registered an Activity of 67%. The IC50 in assay [1] is greater than 7 µM. Further, the MST in assay [4] amounted to 8.5 days.
On to `Nc1nc(O)c2ncn(CO[C@H](CO)CCl)c2n1`, for which, in assay [2], the Activity was 33%. Moreover, the IC50 in assay [1] was 60 µM.
Taken in the same sequence, the figures for `NC[C@@H](CO)OCn1cnc2c(O)nc(N)nc21` were less than 10% and 32 µM.
